System: Rosa26 cells
Test: Apoptosis and cell death, annexin V and propidium iodide staining, flow cytometry, Rosa26 cells
Assay type: cell-based, mouse
Conditions: indicated levels of IPTG (0, 250 pM, 2.5 μM, 1 mM)
Description: Rosa26fibroblasts were obtained from embryonic day 14.5 Rosa26-R mice. The cells were maintained in embryonic fibroblast medium (high-glucose DMEM, 10% FBS, penicillin/streptomycin, L-glutamine, and sodium pyruvate) and grown in a humidified 5% CO2, 37CC incubator. These cells were transfected with 0.8 μg of LTRi-cre and LTRi-bax using Lipofectamine 2000 reagent (Invitrogen). The LTRi-cre cells were analyzed by β-galactosidase staining 48 hr after transfection. The LTRi-bax cells were stained and analyzed by flow cytometry 48 hr after transfection. […]
Cells were grown in 12-well plates, and 24 hr after plating, they were transfected with 0.8 μg of LTRi-bax using Lipofectamine 2000 reagent (Invitrogen) per the manufacturer's protocol and exposed to the indicated levels of IPTG. […] Annexin V has a high affinity for phosphatidylserine; therefore, annexin V conjugated with Alexa Fluor 488 can identify apoptotic cells by binding to phosphatidylserine and can be analyzed by flow cytometry measuring the fluorescence emission at 530 nm (FL1). […] It is impermeable to live and apoptotic cells but stains dead cells with red fluorescence. Dead cells appear red and can be analyzed by flow cytometry measuring the red florescence emission >575 nm (FL3). […]

CC(C)S[C@@H]1O[C@H](CO)[C@H](O)[C@H](O)[C@H]1O [IPTG, isopropyl-β-thiogalactopyranoside]
apoptosis or cell death of non-transfected cells exposed to inducer: no change in apoptosis or cell death

— patent publication US9388425B2, “Tunable genetic switch for regulating gene expression” (TRUSTEES OF BOSTON UNIVERSITY, priority 2006, dated 2016)
